How the values were obtained:
[1] = target: T1, MetQ (methionine-binding protein) (Neisseria meningitidis, UniProt Q9JPG4, N238A); assay: ITC
T1 construct: gene gna1946
T1 sequence (Q9JPG4 43-287 N238A): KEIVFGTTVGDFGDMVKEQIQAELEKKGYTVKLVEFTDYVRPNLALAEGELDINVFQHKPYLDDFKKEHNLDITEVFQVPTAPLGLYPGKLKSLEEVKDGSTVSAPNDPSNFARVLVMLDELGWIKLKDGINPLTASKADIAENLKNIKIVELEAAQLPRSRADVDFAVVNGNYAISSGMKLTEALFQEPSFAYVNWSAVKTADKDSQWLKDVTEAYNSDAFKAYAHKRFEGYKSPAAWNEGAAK

[2] = target: T2, MetQ (methionine-binding protein) (Neisseria meningitidis, UniProt Q9JPG4); assay: ITC (displacement titration with D-methionine); crystal structure at […] Å
T2 construct: gene gna1946

[3] = target: T2, MetQ (methionine-binding protein); assay: ITC; crystal structure at […] Å

Row | SMILES | Kd [1] | Kd [2] | Kd [3]
1 | CSCC[C@H](N)C(=O)O [L-methionine] | 78 µM | 0.0002 µM | 
2 | CSCC[C@@H](N)C(=O)O [D-methionine] | 240 µM |  | 3.5 µM

Reference: publication PMC6739813, “Structures of the Neisseria meningitides methionine‐binding protein MetQ in substrate‐free form and bound to L‐ and D‐methionine isomers” (Protein Science : A Publication of the Protein Society, 2019)
